Data on 13 molecules can be found in US8835428B2, “Diacylglycerol acyltransferase inhibitors” (Piramal Enterprises Limited, priority 2008, dated 2014).

For orientation: inhibition means the change of the read-out against control, counted positive when it falls. Low values mean a response near the control, high ones a response far below the control.

The structures appear in SMILES notation.

One experiment concerns the target T1, hDGAT1 (Homo sapiens, UniProt O75907).
T1 construct: host or cells: Sf9 insect cells (baculovirus); microsomal preparation
T1 sequence (O75907 1-488): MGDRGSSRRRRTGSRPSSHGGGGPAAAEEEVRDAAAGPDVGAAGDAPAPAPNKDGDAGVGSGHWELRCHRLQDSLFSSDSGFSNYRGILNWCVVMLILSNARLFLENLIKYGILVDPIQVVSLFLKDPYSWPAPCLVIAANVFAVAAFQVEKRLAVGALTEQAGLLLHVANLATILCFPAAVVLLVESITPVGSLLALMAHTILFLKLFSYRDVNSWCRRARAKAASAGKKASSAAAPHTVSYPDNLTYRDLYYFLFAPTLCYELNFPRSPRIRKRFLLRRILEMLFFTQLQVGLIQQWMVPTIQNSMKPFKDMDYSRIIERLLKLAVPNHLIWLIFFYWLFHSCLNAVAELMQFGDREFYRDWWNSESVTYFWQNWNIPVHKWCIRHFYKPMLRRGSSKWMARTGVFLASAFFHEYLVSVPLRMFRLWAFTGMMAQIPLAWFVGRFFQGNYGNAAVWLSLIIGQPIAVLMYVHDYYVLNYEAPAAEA
The experiment can be described thus: In-vitro DGAT1 assay (hDGAT1 microsomes from Sf9 cells, 14C oleoyl CoA, triglyceride formation). It counts as biochemical. The settings on record: At 1 μM. The gist of the method: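 Compounds tested in duplicate at 10, 5 and 1 μM for 10 min at 37 °C. Reaction: Sf9-expressed hDGAT1 microsomes (2.5–10 μg), [14C]oleoyl-CoA plus 409.5–1638 μM dioleoylglycerol, pH 7.4 Tris-HCl with fatty-acid-free BSA. Radiolabelled triglyceride extracted into heptane and scintillation-counted.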
As for `CC(C)[C@@H](C(=O)O)N(C)C(=O)c1cc(-c2ccc(NC(=O)Nc3ccccc3F)cc2)no1` [Example 306, (S)-2-(3-(4-(3-(2-fluorophenyl)ureido)phenyl)-N-methylisoxazole-5-carboxamido)-3-methylbutanoic acid], the inhibition at 1 µM lay within 50 to 75%. The same measure, in the same setting: next, `COc1ccc(OC)c(NC(=O)Nc2ccc(-c3cc(C(=O)N[C@H](C(=O)O)C(C)C)on3)cc2)c1` [Example 166, (S)-2-(3-(4-(3-(2,5-Dimethoxyphenyl)ureido)phenyl)isoxazole-5-carboxamido)-3-methylbutanoic acid]: 50 to 75%; `CC(C)C(NC(=O)c1cc(-c2ccc(NC(=O)Nc3ccc(OC(F)(F)F)cc3Cl)cc2)no1)C(=O)O` (stereo not shown) [Example 287, 2-(3-(4-(3-(2-chloro-4-(trifluoromethoxy)phenyl)ureido)phenyl)isoxazole-5-carboxamido)-3-methylbutanoic acid]: 75 to 100%. On to `CC(C)[C@@H](C(=O)O)N(C)C(=O)c1cc(-c2ccc(NC(=O)Nc3cccc(C(F)(F)F)c3)cc2)no1` [Example 310, (S)-3-methyl-2-(N-methyl-3-(4-(3-(3-(trifluoromethyl)phenyl)ureido)phenyl)isoxazole-5-carboxamido)butanoic acid], for which the inhibition at 1 µM was 50 to 75%.

In turn, `CC(C)C(NC(=O)c1cc(-c2ccc(NC(=O)Nc3ccc(F)c(Cl)c3)cc2)no1)C(=O)O` (stereo not shown) [Example 162, 2-(3-(4-(3-(3-chloro-4-fluorophenyl)ureido)phenyl)isoxazole-5-carboxamido)-3-methylbutanoic acid] showed an inhibition at 1 µM of 75 to 100%.

The same experiment, now with this note: At 5 μM.
`O=C(Nc1ccc(-c2cc(C(=O)NC(Cc3ccccc3)C(=O)O)on2)cc1)Nc1ccccc1F` (stereo not shown) [Example 242, 2-(3-(4-(3-(2-Fluorophenyl)ureido)phenyl)isoxazole-5-carboxamido)-3-phenylpropanoic acid] yielded an inhibition at 5 µM of 50 to 75%. On the same count and under the same terms, next, `Cc1cccc(NC(=O)Nc2ccc(-c3cc(C(=O)N[C@H](C(=O)O)C(C)C)on3)cc2)c1` [Example 266, (S)-3-methyl-2-(3-(4-(3-m-tolylureido)phenyl)isoxazole-5-carboxamido)butanoic acid]: 75 to 100%. Same read-out and setting: next, `COC(=O)[C@@H](NC(=O)c1nc(-c2ccc(NC(=S)Nc3cccc(F)c3)cc2)no1)C(C)C` [Example 353, (S)-Methyl 2-(3-(4-(3-(3-fluorophenyl)thioureido)phenyl)-1,2,4-oxadiazole-5-carboxamido)-3-methylbutanoate]: 0 to 50%. On the same count and under the same terms, next, `COC(=O)[C@@H](NC(=O)c1nc(-c2ccc(NC(=S)Nc3ccccc3F)cc2)no1)C(C)C` [Example 355, (S)-methyl 2-(3-(4-(3-(2-fluorophenyl)thioureido)phenyl)-1,2,4-oxadiazole-5-carboxamido)-3-methylbutanoate]: 50 to 75%.

Still in this experiment, the particulars now being: At 10 μM.
In the case of `CCC(C)[C@H](NC(=O)c1cc(-c2ccc(NC(=O)Nc3ccccc3)cc2)no1)C(=O)OC` (stereo partly drawn) [Example 78, (S)-3-Methyl-2-({3-[4-(3-phenyl-ureido)-phenyl]-isoxazole-5-carbonyl}-amino)-pentanoic acid methyl ester], the inhibition at 10 µM was 0 to 50%. Turning to `COC(=O)[C@@H](NC(=S)c1cc(-c2cccc(Nc3nc4ccc(F)cc4s3)c2)no1)C(C)C` [Example 24, (S)-2-({3-[3-(6-Fluoro-benzothiazol-2-ylamino)-phenyl]-isoxazole-5-carbothioyl}-amino)-3-methyl-butyric acid methyl ester], the inhibition at 10 µM fell in the range of 0 to 50%.

As to `CC(C)C(NC(=O)c1cc(-c2ccc(NC(=O)Nc3ccccc3F)c(F)c2)no1)C(=O)O` (stereo not shown) [Example 148, 2-(3-(3-fluoro-4-(3-(2-fluorophenyl)ureido)phenyl)isoxazole-5-carboxamide)-3-methylbutanoic acid], the “% inhibition of hDGAT1” value is on record as “+++ (>75% Inhibition ≦100)”. `CC(C)C[C@H](NC(=O)c1onc(-c2ccc(NC(=O)Nc3ccccc3)cc2)c1-c1ccccc1)C(=O)O` [Example 91, (S)-4-Methyl-2-({4-phenyl-3-[4-(3-phenyl-ureido)-phenyl]-isoxazole-5-carbonyl}-amino)-pentanoic acid] showed an inhibition at 10 µM of 0 to 50%.
